Experimental data taken from patent US11214803B2, “Modulators of YAP1 expression” (Ionis Pharmaceuticals, Inc., priority 2019, dated 2022).
Strand notation (5' to 3'): a small letter for the sugar, then the base; units joined by * are phosphorothioate-linked, units joined directly phosphodiester-linked; [ ] holds rarer units or linkages, { } end groups; capitals alone tell only the bases. k = constrained ethyl (cEt); [5mC] = 5-methylcytosine; d = 2'-deoxy (DNA)

tested on: Yap1 mRNA; test: Antisense inhibition of human Yap1 in SNU-449 cells by modified oligonucleotides, single dose (Example 5, RTS36584); type: cell-based; conditions: Table 48; Yap1 mRNA level relative to untreated control; modified oligonucleotides targeting SEQ ID NO.: 1 and 2
Summary of the method: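 Each modified oligonucleotide is applied by free uptake to SNU-449 cultures at 2,000 nM, and total RNA is harvested around 48 h later. Yap1 transcript, quantified with the RTS36584 set and corrected for RIBOGREEN RNA content, is given as % UTC. Asterisks mark sequences overlapping the amplicon.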

Row | Substance | YAP1 (% UT)
1 | 1197199 (antisense kA*kT*kA*dT*dG*dG*dT*dT*dT*dT*dG*dT*dG*kT*kG*kT) [Compound 1197199] | 75
2 | 1197200 (antisense kT*kT*kA*dT*dA*dT*dG*dG*dT*dT*dT*dT*dG*kT*kG*kT) [Compound 1197200] | 49
3 | 1197201 (antisense kT*k[5mC]*kT*dT*dA*dT*dA*dT*dG*dG*dT*dT*dT*kT*kG*kT) [Compound 1197201] | 46
4 | 1197202 (antisense kA*k[5mC]*kT*d[5mC]*dT*dT*dA*dT*dA*dT*dG*dG*dT*kT*kT*kT) [Compound 1197202] | 27
5 | 1197203 (antisense kA*kA*k[5mC]*dT*d[5mC]*dT*dT*dA*dT*dA*dT*dG*dG*kT*kT*kT) [Compound 1197203] | 68
6 | 1197204 (antisense k[5mC]*kA*kA*d[5mC]*dT*d[5mC]*dT*dT*dA*dT*dA*dT*dG*kG*kT*kT) [Compound 1197204] | 89
7 | 1197205 (antisense kG*kA*k[5mC]*dA*dA*d[5mC]*dT*d[5mC]*dT*dT*dA*dT*dA*kT*kG*kG) [Compound 1197205] | 67

same assay, conditions: Yap1 mRNA, percent of untreated control; modified oligonucleotides targeting SEQ ID NO: 1 and 2; Table 47

Row | Substance | YAP1 (% UT)
8 | 1197187 (antisense kG*kG*kA*dA*dG*dA*dT*d[5mC]*dT*dG*dA*dA*dA*k[5mC]*kT*k[5mC]) [Compound 1197187] | 24
9 | 1197188 (antisense kT*kT*kG*dG*dA*dA*dG*dA*dT*d[5mC]*dT*dG*dA*kA*kA*k[5mC]) [Compound 1197188] | 96
10 | 1197189 (antisense kT*kT*kT*dG*dG*dA*dA*dG*dA*dT*d[5mC]*dT*dG*kA*kA*kA) [Compound 1197189] | 71
11 | 1197190 (antisense k[5mC]*kT*kT*dT*dG*dG*dA*dA*dG*dA*dT*d[5mC]*dT*kG*kA*kA) [Compound 1197190] | 57
12 | 1197191 (antisense kA*kG*kT*dG*d[5mC]*dT*dT*dT*dG*dG*dA*dA*dG*kA*kT*k[5mC]) [Compound 1197191] | 40
13 | 1197192 (antisense kA*kT*kA*dG*dT*dG*d[5mC]*dT*dT*dT*dG*dG*dA*kA*kG*kA) [Compound 1197192] | 39
14 | 1197193 (antisense AGGATGCATGGTTTTT; chemistry not fully specified) [Compound 1197193] | 15
15 | 1197194 (antisense kT*kT*kA*dG*dG*dA*dT*dG*d[5mC]*dA*dT*dG*dG*kT*kT*kT) [Compound 1197194] | 37
16 | 1197195 (antisense kT*kT*kT*dA*dG*dG*dA*dT*dG*d[5mC]*dA*dT*dG*kG*kT*kT) [Compound 1197195] | 38
17 | 1197196 (antisense k[5mC]*kA*kG*dA*dT*dT*dT*dA*dG*dG*dA*dT*dG*k[5mC]*kA*kT) [Compound 1197196] | 27
18 | 1197197 (antisense kT*k[5mC]*kA*dG*dA*dT*dT*dT*dA*dG*dG*dA*dT*kG*k[5mC]*kA) [Compound 1197197] | 20
19 | 1197198 (antisense kA*kT*kT*d[5mC]*dA*dG*dA*dT*dT*dT*dA*dG*dG*kA*kT*kG) [Compound 1197198] | 139
20 | 1197206 (antisense kA*kT*kA*dT*dT*dG*d[5mC]*dA*dA*dT*d[5mC]*dT*dG*kT*k[5mC]*kT) [Compound 1197206] | 63
21 | 1197207 (antisense kA*kA*kT*dA*dT*dT*dG*d[5mC]*dA*dA*dT*d[5mC]*dT*kG*kT*k[5mC]) [Compound 1197207] | 51
22 | 1197208 (antisense kT*kA*kA*dT*dA*dT*dT*dG*d[5mC]*dA*dA*dT*d[5mC]*kT*kG*kT) [Compound 1197208] | 66
